# Assay results reported in patent US20080070971A1, “Medical Use of Bilirubin and its Structural Analogues” (priority 2006, published 2008).
# Legend:
# [1] = target: T1, cholesterol esterase (CHE) (Homo sapiens, UniProt P19835); assay: Cholesterol esterase inhibition; format: biochemical; conditions: bilirubin concentration of about 10 mg/L; pH=7.2 (FIG. 1)
# T1 sequence (P19835 21-753): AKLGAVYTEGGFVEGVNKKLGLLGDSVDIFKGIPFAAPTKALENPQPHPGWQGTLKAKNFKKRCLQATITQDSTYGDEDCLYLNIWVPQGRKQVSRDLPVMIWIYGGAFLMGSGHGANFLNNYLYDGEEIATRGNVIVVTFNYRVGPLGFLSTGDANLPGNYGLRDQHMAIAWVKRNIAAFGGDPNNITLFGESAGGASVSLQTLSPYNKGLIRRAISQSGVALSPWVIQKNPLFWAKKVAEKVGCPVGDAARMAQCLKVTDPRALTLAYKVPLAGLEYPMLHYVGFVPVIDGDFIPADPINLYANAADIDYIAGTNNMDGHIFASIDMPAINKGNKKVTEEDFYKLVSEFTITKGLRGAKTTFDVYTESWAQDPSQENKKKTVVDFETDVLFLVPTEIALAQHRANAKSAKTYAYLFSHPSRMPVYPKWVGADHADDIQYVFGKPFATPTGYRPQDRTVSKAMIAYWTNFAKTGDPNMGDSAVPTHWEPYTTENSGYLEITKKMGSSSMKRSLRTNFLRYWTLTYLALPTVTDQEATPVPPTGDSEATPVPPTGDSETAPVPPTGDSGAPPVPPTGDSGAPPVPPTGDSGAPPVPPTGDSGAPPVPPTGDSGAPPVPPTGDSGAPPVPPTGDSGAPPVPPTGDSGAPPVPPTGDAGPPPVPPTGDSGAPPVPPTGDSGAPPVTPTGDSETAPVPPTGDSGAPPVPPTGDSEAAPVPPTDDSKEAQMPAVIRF
# cyclooxygenase (COX) = assay: Cyclooxygenase (COX) inhibition; format: biochemical, human
# Protocol: The activity of COX was determined by the procedure described in Assay Design's Enzyme Immunometric Assay (EIA) kit (Assay Design Inc., TiterZyme EIA cat.#900-094). Briefly, the kit uses a monoclonal antibody to human COX-II immobilized on a microtiter plate to bind the human COX in the standard or sample. After a short incubation the excess standard or sample is washed out and a rabbit polyclonal antibody to human COX labeled with the enzyme. Horseradish peroxidase is added. This labeled antibody binds to the human COX captured on the plate. After a short incubation the excess labeled antibody is washed out and substrate is added. The substrate reacts with the labeled antibody bound to the human COX captured on the plate. After a short incubation, the enzyme reaction is stopped and the color generated is read at 450 nm. The measured optical density is directly proportional to the concentration of human COX.
# Purified cyclooxygenases (COX) were obtained from Kayman Chemical Company and used to examine the inhibitory effect of bilirubin with arachidonic acid as the substrate. High purity of bilirubin (SigmaAldrich #B4126), biliverdin (Frontier Scientific Inc., Cat. B655-9) and hemin (SigmaAldrich, #51280) were used as received.
# HMG-CoA reductase = target: T2, HMG-CoA reductase (Homo sapiens, UniProt P04035); assay: HMG-CoA reductase assay in liver microsomes; format: biochemical; conditions: 10 mg/L (FIG. 5)
# T2 construct: from tissue; host or cells: liver microsomes
# T2 sequence (P04035 1-888): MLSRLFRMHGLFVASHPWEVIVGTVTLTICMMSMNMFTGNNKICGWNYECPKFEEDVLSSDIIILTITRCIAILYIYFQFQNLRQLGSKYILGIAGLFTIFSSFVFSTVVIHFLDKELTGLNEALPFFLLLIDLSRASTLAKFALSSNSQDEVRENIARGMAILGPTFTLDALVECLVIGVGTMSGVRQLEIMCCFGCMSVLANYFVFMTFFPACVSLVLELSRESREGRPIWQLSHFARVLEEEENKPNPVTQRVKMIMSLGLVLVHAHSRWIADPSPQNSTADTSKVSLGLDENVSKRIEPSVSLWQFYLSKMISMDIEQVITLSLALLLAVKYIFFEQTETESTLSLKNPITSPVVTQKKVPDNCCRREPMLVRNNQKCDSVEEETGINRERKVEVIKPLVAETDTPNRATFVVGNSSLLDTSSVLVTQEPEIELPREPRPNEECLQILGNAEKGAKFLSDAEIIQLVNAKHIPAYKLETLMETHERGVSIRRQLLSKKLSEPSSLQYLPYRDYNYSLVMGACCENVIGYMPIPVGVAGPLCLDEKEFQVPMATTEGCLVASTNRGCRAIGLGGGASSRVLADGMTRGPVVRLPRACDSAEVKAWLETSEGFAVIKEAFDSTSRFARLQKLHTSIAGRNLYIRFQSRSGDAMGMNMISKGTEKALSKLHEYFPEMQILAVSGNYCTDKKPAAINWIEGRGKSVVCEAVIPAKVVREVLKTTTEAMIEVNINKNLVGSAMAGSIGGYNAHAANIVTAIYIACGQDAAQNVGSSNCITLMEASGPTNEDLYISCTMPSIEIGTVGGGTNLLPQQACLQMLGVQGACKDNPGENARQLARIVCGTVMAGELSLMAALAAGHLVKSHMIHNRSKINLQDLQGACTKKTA
# Protocol: Liver microsomes, which are used to investigate cholesterol metabolism, were prepared as follows. Liver was homogenized in 50 mM Tris HCl buffer (pH 7.4), containing 0.3 M sucrose, 10 mM DTT, and 10 mM EDTA. The homogenate was centrifuged at 20,000×g for 15 min, and the supernatant was centrifuged at 100,000×g for 60 min. The resulting microsomal fraction was suspended in 3 ml of 0.1 M potassium phosphate buffer (pH 7.4), containing 1 mM EDTA and 5 mM DTT. Aliquots were immediately frozen in liquid nitrogen and stored at −20° C. until analysis.
# Assay of HMG-CoA reductase. Microsomal suspensions of […], containing 5 mg protein, were preincubated for 5 min at 37° C. with […] of 0.1 M potassium phosphate buffer (pH 7.4), containing 1 mM EDTA and 12 mM glucose-6-phosphate. The assay was initiated by adding […] of cofactor-substrate solution (0.1 mM HMG-CoA, 3 mM MADPH, and 2 U/ml glucose-6-phosphate dehydrogenase). The incubation was performed at 37+ C. for 30 min and was terminated by the addition of […] of 1 M MaOH. After lactonization, the mevalonolactone was separated by thin layer chromatography. The eluate, which contained mevalonolactone, was collected in a scintillation vial. The radioactivity was then counted in a Packard 3320 scintillation spectrometer.
# [2] = tested on: malate dehydrogenase (MDH); assay: Malate dehydrogenase inhibition; format: biochemical; conditions: concentration equivalent to the moderate level of serum bilirubin (FIG. 7)
compound,measurement,setting,value
"C=CC1=C(C)C(=Cc2[nH]c(Cc3[nH]c(C=C4NC(=O)C(C)=C4C=C)c(C)c3CCC(=O)O)c(CCC(=O)O)c2C)NC1=O [bilirubin, 2,7,13,17-tetramethyl-1,19-dioxo-3,18-divinyl-1,10,19,22,23,24-hexahydro-21H-biline-8,12-dipropanoic acid]",inhibition at 10 µg/mL,[1],~50%
same,inhibition of the COX activity,cyclooxygenase (COX); 10 mg/L bilirubin (FIG. 3),Up to 70%
same,reducing COX activity (comparison),cyclooxygenase (COX); concentration of 10 mg/L (FIG. 4),effective in reducing COX activity
same,reduction of HMG-CoA reductase activity,HMG-CoA reductase,≤ 60%
same,inhibition of malate dehydrogenase,[2],strongly suppressed
